From patent US20260199350A1, “FLAVONES, QUINOLINONES, QUINAZOLINONES, AND AURONES, AND USES IN CK2-MEDIATED DISEASES” (Salk Institute for Biological Studies, priority 2022, published 2026)
Converted amounts (≈) assume the structure as drawn. Read-outs that look alike come from different tables or passages of the source.

Columns and labels:
[1] = biological target: T1, CK2A2 (Homo sapiens, UniProt P19784); assay: Radiometric kinase assay (Eurofins), CK2A2; assay type: biochemical; conditions: read-out: CK2A2 RAD IC50
T1 construct: purchased Eurofins
T1 sequence (P19784 whole entry): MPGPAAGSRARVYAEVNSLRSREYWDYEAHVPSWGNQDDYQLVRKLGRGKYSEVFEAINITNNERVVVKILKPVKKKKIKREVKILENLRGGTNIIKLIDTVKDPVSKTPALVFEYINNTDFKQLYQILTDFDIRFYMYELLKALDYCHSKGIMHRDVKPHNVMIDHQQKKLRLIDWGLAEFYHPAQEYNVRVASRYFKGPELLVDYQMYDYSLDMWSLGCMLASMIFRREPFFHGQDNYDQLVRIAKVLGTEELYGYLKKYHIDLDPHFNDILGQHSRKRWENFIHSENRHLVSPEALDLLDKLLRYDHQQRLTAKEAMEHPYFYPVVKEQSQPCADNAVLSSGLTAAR
Excerpt: (§1) • ^1Radiometric kinase assay from Eurofins. Performed in astrocytes with a Promega Lumit IL-6 kit.

[2] = tested on: IL-6 secretion; assay: IL-6 secretion assay in astrocytes (Promega Lumit IL-6 kit); assay type: cell-based, human; conditions: Homo sapiens, Astrocyte, read-out: IL6-Inhib.
Method: IL-6 secretion assay. HCAs were plated at 20,000 cells per well in white clear bottom 96-well plates. Two to three days later, media was removed and replaced with media containing 10 ng/mL IL1B and compound dilution series. Five hours later, plates were processed using the Lumit IL-6 Assay Kit (Promega W6030) according to the manufacturer's instructions.
• ^1Radiometric kinase assay from Eurofins. Performed in astrocytes with a Promega Lumit IL-6 kit. A series of halogenated flavones was generated and assayed (Table 3).

[3] = biological target: T2, CK2A1 (Homo sapiens, UniProt P68400); assay: Radiometric kinase assay (Eurofins), CK2A1; assay type: biochemical; conditions: read-out: CK2A1 RAD IC50
T2 construct: purchased Eurofins
T2 sequence (P68400 whole entry): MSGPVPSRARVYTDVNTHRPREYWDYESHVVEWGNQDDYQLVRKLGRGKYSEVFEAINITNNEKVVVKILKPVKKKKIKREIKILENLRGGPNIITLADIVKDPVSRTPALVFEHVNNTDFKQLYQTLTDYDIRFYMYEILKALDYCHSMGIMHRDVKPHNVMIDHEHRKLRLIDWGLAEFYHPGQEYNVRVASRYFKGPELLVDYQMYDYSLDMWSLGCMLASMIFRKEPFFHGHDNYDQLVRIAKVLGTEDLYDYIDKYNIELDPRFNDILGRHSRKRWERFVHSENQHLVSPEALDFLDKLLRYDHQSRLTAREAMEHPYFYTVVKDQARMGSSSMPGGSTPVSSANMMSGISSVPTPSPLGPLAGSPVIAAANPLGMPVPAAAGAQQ
Excerpt: FIGS. 4A-4F characterize flavones for in vitro and in-cell CK2 inhibition. […] Representative of two independent experiments. […] Nonlinear fit was used to calculate IC50. […] Nonlinear fit was used to calculate IC50. […] Nonlinear fit was used to calculate IC50. […] Normalized to DMSO, data are representative of three independent experiments.
as §1

[4] = Aqueous solubility; assay type: physicochemical; conditions: read-out: Aqueous Solubility
[5] = aqueous (not further specified), Table 3
[6] = aqueous medium (not further specified), Table 8

Row | IC50 ([1]; Table 3, halogenated flavones) [nM] | IC50 ([2]; Table 3) [nM] | IC50 ([3]; Table 3, halogenated flavones) [nM] | solubility [4, 5] [µM] | IC50 ([1]; Table 11, aurones) [nM] | IC50 ([2]; Table 11) [nM] | IC50 ([3]; Table 11, aurones) [nM] | solubility ([4]; Table 11) [µM] | other results | Structure (SMILES)
1 | 17 | 3700 | 13 | 5 (≈ 1.98 µg/mL) |  |  |  |  |  | O=c1cc(-c2ccc(O)c(Br)c2)oc2c(Br)cccc12 [JKT.744B]
2 | 11 | 3000 | 20 | > 200 |  |  |  |  |  | COc1c(Br)cc2c(=O)cc(-c3ccc(O)c(Br)c3)oc2c1Br [JKT.745A]
3 | 9 | 3900 | 24 | 24.3 (≈ 11.2 µg/mL) |  |  |  |  |  | COc1c(Br)cc2c(=O)cc(-c3ccc(O)c(Cl)c3)oc2c1Br [JKT.748A]
4 | 18 | 4800 | 11 | 36.5 (≈ 12.8 µg/mL) |  |  |  |  |  | O=c1cc(-c2ccc(O)c(Cl)c2)oc2c(Br)cccc12 [JKT.749A]
5 | 466 | 2200 | 580 | 124 (≈ 61.5 µg/mL) |  |  |  |  |  | COc1c(Br)cc2c(=O)cc(-c3ccc(O)c(C(F)(F)F)c3)oc2c1Br [JKT.750A]
6 | 637 | 5000 | 635 | 4 (≈ 1.54 µg/mL) |  |  |  |  |  | O=c1cc(-c2ccc(O)c(C(F)(F)F)c2)oc2c(Br)cccc12 [JKT.751A]
7 | 1850 | > 10000 | > 5000 | 109 (≈ 50.5 µg/mL) |  |  |  |  |  | COc1c(Br)cc2c(=O)cc(-c3cc(F)c(O)c(F)c3)oc2c1Br [JKT.753A]
8 |  |  |  |  | > 5000 | 3000 | > 5000 | 2.7 (≈ 1.28 µg/mL) |  | O=C1/C(=C/c2ccc(O)cc2Br)Oc2c(Br)cc(Br)cc21 [JKT.758A]
9 |  |  |  |  | 44 | 2300 | 57 | 3.6 (≈ 1.82 µg/mL) |  | COc1c(Br)cc2c(c1Br)O/C(=C\c1ccc(O)c(Br)c1)C2=O [JKT.759A]
10 |  |  |  |  | > 5000 | 9400 | > 5000 | 184 (≈ 92.7 µg/mL) |  | COc1c(Br)cc2c(c1Br)O/C(=C\c1ccc(O)cc1Br)C2=O [JKT.760A]
11 |  |  |  |  | 48 | 2500 | 67 | 120 (≈ 55.2 µg/mL) |  | COc1c(Br)cc2c(c1Br)O/C(=C\c1ccc(O)c(Cl)c1)C2=O [JKT.761A]
12 |  |  |  |  | > 5000 | 4400 | > 5000 | 58.6 (≈ 27 µg/mL) |  | COc1c(Br)cc2c(c1Br)O/C(=C\c1ccc(O)cc1Cl)C2=O [JKT.762A]
13 |  |  |  |  | 627 | 2700 | 598 | 7.9 (≈ 3.9 µg/mL) |  | COc1c(Br)cc2c(c1Br)O/C(=C\c1ccc(O)c(C(F)(F)F)c1)C2=O [JKT.763A]
14 |  |  |  |  | 383 | 12000 | 521 | < 0.01 |  | COc1cc(/C=C2\Oc3c(cc(Br)c(OC)c3Br)C2=O)ccc1O [JKT.764A]
15 |  |  |  |  | 199 | 15000 | 2460 | > 200 |  | COc1c(Br)cc2c(c1Br)O/C(=C\c1ccc(C(=O)O)cc1)C2=O [JKT.765A]
16 |  |  |  |  |  |  |  |  | IC50 ([1]; Table 8, quinazolinones): 72 nM; IC50 ([2]; Table 8): 11000 nM; IC50 ([3]; Table 8, quinazolinones): 23 nM; solubility [4, 6]: < 0.01 µM | O=c1[nH]c(-c2ccc(O)c(Cl)c2)nc2c(Br)cc(Br)cc12 [JKT.772A]
17 |  |  |  |  |  |  |  |  | IC50 ([1]; Table 8, quinazolinones): 276 nM; IC50 ([2]; Table 8): > 10000 nM; IC50 ([3]; Table 8, quinazolinones): 243 nM; solubility [4, 6]: 24.1 µM (≈ 11.2 µg/mL) | O=c1[nH]c(-c2cc(Cl)c(O)c(Cl)c2)nc2c(Br)cc(Br)cc12 [JKT.773B]
18 |  |  |  |  |  |  |  |  | IC50 ([1]; Table 8, quinazolinones): 1040 nM; IC50 ([2]; Table 8): > 10000 nM; IC50 ([3]; Table 8, quinazolinones): 818 nM; solubility [4, 6]: 152 µM (≈ 65.5 µg/mL) | O=c1[nH]c(-c2cc(F)c(O)c(F)c2)nc2c(Br)cc(Br)cc12 [JKT.774A]
19 |  |  |  |  |  |  |  |  | IC50 ([1]; Table 8, quinazolinones): 2480 nM; IC50 ([2]; Table 8): > 10000 nM; IC50 ([3]; Table 8, quinazolinones): 370 nM; solubility [4, 6]: 17.9 µM (≈ 8.31 µg/mL) | O=c1[nH]c(-c2ccc(O)c(C(F)(F)F)c2)nc2c(Br)cc(Br)cc12 [JKT.775A]

Row | IC50 ([1]; Table 3, halogenated flavones) [nM] | IC50 ([2]; Table 3) [nM] | IC50 ([3]; Table 3, halogenated flavones) [nM] | solubility [4, 5] [µM] | IC50 ([1]; Table 11, aurones) [nM] | IC50 ([2]; Table 11) [nM] | IC50 ([3]; Table 11, aurones) [nM] | solubility ([4]; Table 11) [µM] | other results | Structure (SMILES)
20 | 21 | 10300 | 20 | 14 (≈ 4.92 µg/mL) |  |  |  |  |  | O=c1cc(-c2ccc(O)c(Br)c2)oc2c(Cl)cccc12 [JKT.777A]
21 | 78 | 7400 | 115 | 15.1 (≈ 5.31 µg/mL) |  |  |  |  |  | O=c1cc(-c2ccc(O)c(Br)c2)oc2ccc(Cl)cc12 [JKT.778A]
22 | 25 | > 10000 | 9 | < 0.01 |  |  |  |  |  | COc1ccc2c(=O)cc(-c3ccc(O)c(Br)c3)oc2c1Br [JKT.780A]
23 | 1710 | > 10000 | 2480 | < 0.01 |  |  |  |  |  | COc1ccc2c(=O)cc(-c3ccc(O)c(C(F)(F)F)c3)oc2c1Br [JKT.786A]
24 | 16 | 7700 | 24 | < 0.01 |  |  |  |  |  | COc1ccc2c(=O)cc(-c3ccc(O)c(Cl)c3)oc2c1Br [JKT.787A]
25 |  |  |  |  |  |  |  |  | IC50 ([1]; Table 4): 21 nM; IC50 ([2]; Table 4): 4400 nM; IC50 ([3]; Table 4): 24 nM; solubility ([4]; Table 4): 155 µM (≈ 66.8 µg/mL) | O=c1cc(-c2ccc(O)c(Cl)n2)oc2c(Br)cc(Br)cc12 [JKT.801A]
26 |  |  |  |  |  |  |  |  | IC50 ([1]; Table 8, quinazolinones): 2830 nM; IC50 ([2]; Table 8): > 10000 nM; IC50 ([3]; Table 8, quinazolinones): 2890 nM; solubility [4, 6]: 4.2 µM (≈ 1.62 µg/mL) | O=c1[nH]c(-c2ccc(O)c(Br)c2)nc2c(Cl)cc(Cl)cc12 [JKT.805A]
27 |  |  |  |  |  |  |  |  | IC50 ([1]; Table 8, quinazolinones): > 5000 nM; IC50 ([2]; Table 8): > 10000 nM; IC50 ([3]; Table 8, quinazolinones): > 5000 nM; solubility [4, 6]: 17 µM (≈ 5.81 µg/mL) | O=c1[nH]c(-c2ccc(O)c(Cl)c2)nc2c(Cl)cc(Cl)cc12 [JKT.806A]
28 |  |  |  |  |  |  |  |  | IC50 ([1]; Table 8, quinazolinones): > 5000 nM; IC50 ([2]; Table 8): > 10000 nM; IC50 ([3]; Table 8, quinazolinones): 910 nM; solubility [4, 6]: 126 µM (≈ 47.3 µg/mL) | O=c1[nH]c(-c2cc(Cl)c(O)c(Cl)c2)nc2c(Cl)cc(Cl)cc12 [JKT.807A]
29 |  |  |  |  |  |  |  |  | IC50 ([1]; Table 8, quinazolinones): 1620 nM; IC50 ([2]; Table 8): > 10000 nM; IC50 ([3]; Table 8, quinazolinones): 2980 nM; solubility [4, 6]: 189 µM (≈ 64.7 µg/mL) | O=c1[nH]c(-c2cc(F)c(O)c(F)c2)nc2c(Cl)cc(Cl)cc12 [JKT.808A]
30 |  |  |  |  |  |  |  |  | IC50 ([1]; Table 8, quinazolinones): > 5000 nM; IC50 ([2]; Table 8): > 10000 nM; IC50 ([3]; Table 8, quinazolinones): 82 nM; solubility [4, 6]: < 0.01 µM | O=c1[nH]c(-c2ccc(O)c(C(F)(F)F)c2)nc2c(Cl)cc(Cl)cc12 [JKT.809A]
31 |  |  |  |  |  |  |  |  | IC50 ([1]; Table 8, quinazolinones): > 5000 nM; IC50 ([2]; Table 8): > 10000 nM; IC50 ([3]; Table 8, quinazolinones): > 5000 nM; solubility [4, 6]: < 0.01 µM | COc1cc(-c2nc3c(Cl)cc(Cl)cc3c(=O)[nH]2)ccc1O [JKT.810A]
32 |  |  |  |  | 193 | 1100 | 135 | < 0.01 |  | COc1c(Br)cc2c(c1Br)O/C(=C\c1ccc(O)c(I)c1)C2=O [JKT.813A]
33 |  |  |  |  | 123 | 4300 | 131 | < 0.01 |  | COc1ccc2c(c1Br)O/C(=C\c1ccc(O)c(I)c1)C2=O [JKT.814A]
34 |  |  |  |  | 26 | 4600 | 47 | < 0.01 |  | COc1ccc2c(c1Br)O/C(=C\c1ccc(O)c(Br)c1)C2=O [JKT.815A]
35 |  |  |  |  | 1520 | > 10000 | 119 | < 0.01 |  | COc1ccc2c(c1Br)O/C(=C\c1ccc(O)cc1Br)C2=O [JKT.816A]
36 |  |  |  |  | 53 | 6500 | 59 | < 0.01 |  | COc1ccc2c(c1Br)O/C(=C\c1ccc(O)c(Cl)c1)C2=O [JKT.817A]
37 |  |  |  |  | > 5000 | > 10000 | > 5000 | < 0.01 |  | COc1ccc2c(c1Br)O/C(=C\c1ccc(O)cc1Cl)C2=O [JKT.818A]
